What was measured:
A549 cells [1] = test: In vivo treatment study, subcutaneous A549 xenograft; conditions: for tumor growth (tumor volume): i.p. daily (M-F), compound 1 50 mg/kg BID, carboplatin 5 mg/kg
Experimental: Male athymic nude mice (Harlan Laboratories, 6 week-old) were injected in the flank with 5×10^6 A549 cells. Cell line authenticity and absence of pathogens in the A549 cells were confirmed before establishing the model (I DEXX BioAnalytics). […] All mice were weighed twice a week, and tumors were measured twice a week using a caliper. All mice were sacrificed after 4 weeks of treatment and harvested for analysis of Nrf2 expression and cell proliferation.
Tumors were harvested and fixed in 10% neutral buffered formalin. Sectioned were obtained for immunohistochemistry staining. Sodium citrate buffer (10 mM, Vector) was used for antigen retrieval. 3% hydrogen peroxide (15-minute incubation) was used to quench the endogenous peroxidase activity. Sections were stained with PCNA (1:200, Santa Cruz) or Nrf2 (1:200, Novus Biologicals) antibodies for 1 hour at room temperature or overnight at 4° C., respectively. Anti-mouse and anti-rabbit secondary antibodies conjugated to HRP were purchased from Cell Signaling Technology. Signal was detected using a DAB kit (Cell Signaling Technology) and sections were counterstained with hematoxylin (Vector).

A549 cells [2] = test: Reactive oxygen species (ROS) assay; conditions: 24 hours, then tBHP for 15 minutes
Experimental: DCFDA (10 μM) was added for 2 hrs as an ROS indicator and then cells were treated with tert-butyl hydroperoxide (tBHP, 250 μM) for 15 minutes before harvesting. Then cells were washed with PBS and trypsinized to a single cell suspension. The cell pellet was resuspended in PBS and analyzed using a flow cytometer (Accuri, BD) with the FLA-1 channel. 50,000 events were acquired for each sample. Mean fluorescence intensity (MFI) was calculated using FlowJo software.

[3] = system: A549, H460 and A427 cells; test: Cell growth in 3D culture (0.6% soft agar); assay type: cell-based, human; conditions: 7 days, dose-dependent
Experimental: (§1) To evaluate cell proliferation in 2D culture, a MTT assay was performed. Cells were seeded in 96-well plates with 2000 cells/well in their corresponding growth media. […] To assess cell growth in 3D culture, A549, H460 and A427 cells were plated in 0.6% soft agar for 7 days. A Cytation 3 imaging reader from BioTek with Gen5 3.04 software was used to quantify colonies. Seven pictures were taken every 100 μm and superimposed together by z-projection function. Colonies>50 μm in diameter were quantified for each cell line.
(§2) Besides its anti-oxidative properties, Nrf2 also contributes to tumor cell growth. Nrf2 not only regulates cell proliferation as a downstream mediator of several onco-proteins but also reprograms cellular metabolism to favor anabolic pathways.

[4] = system: NF-κB pathway proteins (IκBa, NF-κB, p-NF-κB), cyclinG1 and STAT3; test: Western blotting of other cellular proteins (selectivity); assay type: cell-based
Experimental: Protein concentrations were measured using the BCA assay (Sigma-Aldrich). 20 μg of protein were separated by 10% SDS-PAGE gels and transferred to nitrocellulose membranes. Nrf2 (Novus Biologicals, 1:1000), NQO1 (Abcam, 1:1000), HO-1 (Abcam, 1:1000), Keap1 (Cell Signaling Technology, 1:1000), NF-κB (Cell Signaling Technology, 1:1000), IκBα (Cell Signaling Technology, 1:1000) Cyclin G1 (Santa Cruz, 35 1:1000), β-TrCP (Cell Signaling Technology, 1:1000), STAT3 (Cell Signaling Technology, 1:1000), Ubiquitin (Cell Signaling Technology, 1:1000), Histone 3 (Cell Signaling Technology, 1:4000), GAPDH (Santa Cruz, 1:4000) and Vinculin (Cell Signaling Technology, 1:4000) primary antibodies were applied to detect the corresponding proteins. Secondary antibodies (anti-rabbit or anti-mouse linked to HRP, 1:1000) were purchased from Cell Signaling Technology. ECL Western blotting substrate (GE Healthcare Life Sciences, UK) was used to detect the signal. […] Protein quantification was done using ImageJ.

MCF-10A cells = test: Cell growth assay, MTT, MCF-10A cells; assay type: cell-based; conditions: concentrations<20 μM (data not shown)
Experimental: as §1, §2

Nrf2 pathway = test: RT-qPCR of targets downstream of Nrf2 in A549 cells; conditions: 24 hours of treatment
Experimental: Total RNA was isolated using a RNeasy Mini Kit (QIAGEN). RNA concentrations were determined using NanoDrop. For each sample, 500 ng RNA was used to synthesize cDNA with high capacity cDNA reverse transcription kits (AppliedBiosystems). Primers were ordered from IDT. AppliedBiosystems Fast SYBR Green Master Mix and the QuantStudio 7 Flex Real-Time PCR system were used to detect gene expression. The delta-delta Ct method was applied to calculate relative gene expression. Values were normalized to the reference gene GAPDH and expressed as fold change compared to DMSO treated samples.

A549 cells [5] = test: Chemoresistance assay (Celltiter-glo); conditions: 72 hours
Excerpt: Data was normalized to the DMSO control and presented as a percentage of cell viability. Data represent three independent experiments.

[6] = system: A549, H460, A427 and MCF-7 cells; test: Cell growth assay, MTT, 2D culture, cancer cells; assay type: cell-based, human; conditions: 72 hours
Experimental: as §1, §2

Nrf2 = target: T1, Nrf2 (Homo sapiens, UniProt Q16236); conditions: cited from earlier work
T1 sequence (Q16236 1-605): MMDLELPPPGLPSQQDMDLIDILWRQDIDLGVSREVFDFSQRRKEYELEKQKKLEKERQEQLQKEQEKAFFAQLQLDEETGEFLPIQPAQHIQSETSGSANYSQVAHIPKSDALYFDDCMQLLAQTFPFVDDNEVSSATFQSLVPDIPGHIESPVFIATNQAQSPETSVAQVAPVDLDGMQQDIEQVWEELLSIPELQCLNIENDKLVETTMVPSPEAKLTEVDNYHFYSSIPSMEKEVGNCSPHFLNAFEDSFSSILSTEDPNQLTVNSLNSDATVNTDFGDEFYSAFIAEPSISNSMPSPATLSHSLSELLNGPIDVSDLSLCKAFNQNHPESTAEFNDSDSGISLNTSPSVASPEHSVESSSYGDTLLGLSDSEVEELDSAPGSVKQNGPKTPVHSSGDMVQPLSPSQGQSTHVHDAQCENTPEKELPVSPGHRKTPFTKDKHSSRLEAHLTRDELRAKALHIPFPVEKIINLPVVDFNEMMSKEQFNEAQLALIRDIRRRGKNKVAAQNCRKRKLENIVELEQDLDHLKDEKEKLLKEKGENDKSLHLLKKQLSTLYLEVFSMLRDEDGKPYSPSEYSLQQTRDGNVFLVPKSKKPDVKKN

N.N.O=C([O-])C1(C(=O)[O-])CCC1.[Pt+2] [Carboplatin, carboplatin, reference compound]
tumor growth (tumor volume) (A549 cells [1]; nude mice, four weeks): failed to arrest tumor growth

Cc1cc(C)cc(Nc2nc(C)c(-c3ccccc3)cc2C#N)c1 [Compound 1, 2-((3,5-dimethylphenyl)amino)-6-methyl-5-phenylnicotinonitrile]
ROS production (A549 cells [2]): dose-dependently increased ROS production
growth in soft agar [3]: significantly (p<0.05) suppressed the growth
levels of NF-κB pathway proteins and other fast turnover proteins (cyclinG1, STAT3) [4]: did not change levels
overall expression pattern of abundant cellular proteins ([4]; data not shown): did not alter the overall expression pattern of abundant cellular proteins
cell viability of non-tumorigenic epithelial cells (MCF-10A cells): did not have any effects on cell viability
mRNA expression of NFE2L2 (Nrf2 pathway): did not affect the mRNA expression of NFE2L2
mRNA expression of targets downstream of Nrf2 (NQO1, GCLC, GCLM, GST1A1, UGT1A6) (Nrf2 pathway): significantly (p<0.05) decreased the expression of all these downstream genes
effect in combination with chemotherapy drugs (carboplatin, doxorubicin, 5-fluorouracil, topotecan) on cell viability (A549 cells [5]): Additive effects
sensitivity of Keap1 mutant (A549, H460) vs Keap1 wildtype (A427, MCF-7) cells ([6]; MTT): higher sensitivity
cell proliferation (MTT) ([6]; Keap1 mutant and Keap1 wild-type cancer cells): inhibited proliferation in various cancer cells
expression of Nrf2 protein in the tumors (A549 cells [1]; immunohistochemistry, vs vehicle control group): diminished the expression of Nrf2 protein in the tumors
tolerability / body weight (A549 cells [1]; nude mice, 50 mg/kg BID i.p., four weeks): generally well tolerated in the mice without inducing any changes on body weight over time
tumor growth (tumor volume) (A549 cells [1]; nude mice, four weeks): appeared to slow tumor growth, but the change was not statistically significant

CCC(=O)O[C@]1(C(=O)CCl)[C@@H](C)C[C@H]2[C@@H]3CCC4=CC(=O)C=C[C@]4(C)[C@@]3(F)[C@@H](O)C[C@@]21C [clobetasol propionate]
mechanism of Nrf2 degradation (Nrf2): promotes βTrCP-dependent degradation of Nrf2

brusatol
time for Nrf2 protein levels to return to basal levels (Nrf2): ≤ 8 h
time of maximum reduction of Nrf2 (Nrf2): 2 to 4 h
